The values that follow come from patent US20230175069A1, “COMPOSITIONS AND METHODS FOR DETECTING GENE FUSIONS OF ESR1 AND CCDC170 FOR DETERMINING INCREASED RESISTANCE TO ENDOCRINE THERAPY AND FOR CANCER TREATMENT” (UNIVERSITY OF PITTSBURGH-OF THE COMMONWEAL TH SYSTEM OF …, priority 2020, published 2023).

Assay [1] deals with HCC1428 cells. The assay is described as follows: Clonogenic assay in HCC1428 cells (endogenous E2-E10 ESR1-CCDC170 fusion). Type of assay: cell-based, human. As to conditions: for cell viability, inhibitor in combination with tamoxifen or fulvestrant compared to tamoxifen or fulvestrant alone / therapeutic effect when combined with fulvestrant, comparison / therapeutic activity in combination with tamoxifen or fulvestrant, comparison between inhibitors: lapatinib 2 µM; for cell viability, inhibitor in combination with tamoxifen or fulvestrant compared to tamoxifen or fulvestrant alone: dasatinib 0.05 µM, BEZ235 8 nM; for cell viability, inhibitor in combination with tamoxifen or fulvestrant compared to tamoxifen or fulvestrant alone / therapeutic activity in combination with tamoxifen or fulvestrant, comparison between inhibitors: AZD8931 1 µM; for therapeutic effect when combined with fulvestrant, comparison: dasatinib 0.05 µM plus fulvestrant; for therapeutic activity in combination with tamoxifen or fulvestrant, comparison between inhibitors: dasatinib 0.05 µM vs BEZ235 8 nM.

Assay [2] deals with ZR-75-1 cells. The assay is described as follows: Clonogenic assay in ZR-75-1 cells (E2-E6 ESR1-CCDC170 fusion). Type of assay: cell-based, human. The settings on record: for cell viability, concomitant inhibitor compared to endocrine treatment alone: lapatinib 2 µM or dasatinib 0.05 µM with tamoxifen or fulvestrant.
Protocol: A) Sensitivity of ZR-75-1 cells to tamoxifen in combination with HER2, SRC, or HER2+SRC inhibitors as measured by clonogenic assays. ZR-75-1 cells were treated with different dosages of 4-OH tamoxifen (µM), or 4-OH tamoxifen plus lapatinib (2 µM), dasatinib (0.05 µM), or lapatinib (2 µM) + dasatinib (0.05 µM). Data were normalized against vehicle treatment alone (as 100%). […] Data were normalized against vehicle treatment alone (as 100%).
Left panel, the representative plate images of clonogenic assays. Right panel, the relative clonogenic viabilities normalized to tamoxifen monotreatment (Means ± SD. of triplicates).
The clonogenic viabilities following the respective treatments were assessed by clonogenic assays.
The test system of assay [3] is MDA-MB-415. The assay is described as follows: Clonogenic assay in fusion-negative MDA-MB-415 cells. Type of assay: cell-based. As to conditions: Homo sapiens; MDA-MB-415 (fusion-negative); titrated lapatinib in combination with 0.5 µM tamoxifen, 10 to 13 days; read-out: IC50 (clonogenic viability).
Assay [4] concerns CAMA-1. The assay is described as follows: Clonogenic assay in fusion-negative CAMA-1 cells. The class given is cell-based. As to conditions: Homo sapiens; CAMA-1 (fusion-negative); titrated lapatinib in combination with 0.5 µM tamoxifen, 10 to 13 days; read-out: IC50 (clonogenic viability).
In assay [5] the test system is HER2. The settings on record: HCC1428 cells.

The structures appear in SMILES notation.

`CNC(=O)CN1CCC(Oc2cc3c(Nc4cccc(Cl)c4F)ncnc3cc2OC)CC1` [AZD8931]: the “cell viability, inhibitor in combination with tamoxifen or fulvestrant compared to tamoxifen or fulvestrant alone” value in assay [1] is “significantly inhibited cell viability”.
On the same count and under the same terms, in the case of `Cn1c(=O)n(-c2ccc(C(C)(C)C#N)cc2)c2c3cc(-c4cnc5ccccc5c4)ccc3ncc21` [BEZ235] it was “significantly inhibited cell viability”.
With `Cc1nc(Nc2ncc(C(=O)Nc3c(C)cccc3Cl)s2)cc(N2CCN(CCO)CC2)n1` [dasatinib], the “activity in the presence of tamoxifen, comparison” value in assay [1] (dasatinib 0.05 µM vs lapatinib 2 µM plus 4-OH tamoxifen) is “better activity than lapatinib”. Moreover, in assay [1], the “therapeutic effect when combined with fulvestrant, comparison” value is listed as “comparable therapeutic effects”; the “therapeutic activity in combination with tamoxifen or fulvestrant, comparison between inhibitors” value was “better therapeutic activities than BEZ235 or AZD8931”; the “cell viability, inhibitor in combination with tamoxifen or fulvestrant compared to tamoxifen or fulvestrant alone” value is “significantly inhibited cell viability”. Moreover, in assay [2], the “cell viability, concomitant inhibitor compared to endocrine treatment alone” value was “did not show any significant therapeutic benefit”.
For the compound `CS(=O)(=O)CCNCc1ccc(-c2ccc3ncnc(Nc4ccc(OCc5cccc(F)c5)c(Cl)c4)c3c2)o1` [lapatinib], the IC50 (usually the midpoint of a concentration-inhibition curve) in assay [1] (Homo sapiens, HCC1428 (E2-E10 variant), titrated lapatinib in combination with 0.5 µM tamoxifen, 10 to 13 days, normalized to tamoxifen monotreatment, read-out: IC50 (clonogenic viability)) stood at 150 nM; in assay [2] (Homo sapiens, ZR-75-1 (E2-E6 variant), titrated lapatinib in combination with 0.5 µM tamoxifen, 10 to 13 days, normalized to tamoxifen monotreatment, read-out: IC50 (clonogenic viability)), 600 nM; in assay [3], 4000 nM; in assay [4], 6500 nM. Moreover, the “therapeutic effect when combined with fulvestrant, comparison” value in assay [1] was “comparable therapeutic effects”. For the same compound, the “therapeutic activity in combination with tamoxifen or fulvestrant, comparison between inhibitors” value in assay [1] is “better therapeutic activities than BEZ235 or AZD8931”. Moreover, the “cell viability, inhibitor in combination with tamoxifen or fulvestrant compared to tamoxifen or fulvestrant alone” value in assay [1] is “significantly inhibited cell viability”. For the same compound, the “cell viability, concomitant inhibitor compared to endocrine treatment alone” value in assay [2] was “further decreased cell viability”.
`CC/C(=C(\c1ccccc1)c1ccc(OCCN(C)C)cc1)c1ccccc1` [tamoxifen]: the “cell growth (clonogenic assay), endocrine agent alone” value in assay [1] (Tam 0.5 µM or Ful 0.1 µM, 72 hours) was “reduced cell growth efficiently”. In addition, the “response of cells to endocrine treatment (clonogenic assay)” value in assay [2] (increasing doses of tamoxifen or fulvestrant) is “responded”. The “HER2 protein level (Western blot)” value in assay [5] is on record as “upregulated”.
